Measured values: patent US20250041363A1, “COMPOSITIONS AND METHODS FOR TREATMENT OF ALCOHOL USE DISORDER AND ALCOHOL-ASSOCIATED LIVER DISEASE” (UNIVERSITY OF LOUISVILLE RESEARCH FOUNDATION, INC., priority 2023, published 2025)

Columns and labels:
Type in all cases: in vivo, human
[1] = system: patients with moderately severe acute alcohol associated hepatitis (mAH, MELD <21) with heavy alcohol drinking; assay: Double-blind placebo-controlled trial of LGG: liver injury, severity and progression markers; conditions: for INR / ABIC / MELD / Creatinine / Albumin / AST:ALT / Total Bilirubin / ALT / AST: LGG arm; for INR: baseline 1.453 ± 0.35; for ABIC: baseline 6.3 ± 1.26; for MELD: baseline 17.42 ± 1.79; for Creatinine: baseline 0.64 ± 0.17; for Albumin: baseline 2.7 ± 0.6; for AST:ALT: baseline 2.74 ± 1.54; for Total Bilirubin: baseline 7.2 ± 4.5; for ALT: baseline 73.7 ± 46.7; for AST: baseline 169.0 ± 88.4
Source text: (§1) We analyzed data from 46 participants in a large NIAAA-funded clinical trial performed at 4 medical centers (DASH Consortium). This investigation was a double-blind placebo-controlled study of patients with moderately severe acute alcohol associated hepatitis (mAH, MELD <21) who had pre-existing/ongoing heavy alcohol drinking, with clinical assessments at multiple time points. Data on demographics, drinking, and liver injury were collected and assessed at baseline (BL), 1-month (1-m), 3-months (3-m), and 6-months (6-m). Alcohol consumption was measured by baseline AUDIT, monthly alcohol use questionnaire; and liver injury was assessed by standard liver injury markers. All patients received standard medical management for liver disease and counseling for AUD in the standard of care protocol.

[2] = system: patients with moderately severe acute alcohol associated hepatitis (mAH, MELD <21) with heavy alcohol drinking; assay: Double-blind placebo-controlled trial of LGG: alcohol consumption (monthly alcohol use questionnaire); conditions: for #Drinks (Weekly): LGG arm, baseline 34.71 ± 21.99
Source text: Conduct a pilot double-blind treatment trial identifying the dual therapeutic role of LGG in patients with comorbid AUD and moderate AH. Evaluate the therapeutic effects of LGG on lowering alcohol consumption over 6 months of treatment compared to placebo. Evaluate the therapeutic outcomes of LGG treatment on liver injury, progression and prognosis compared to placebo. Validate the central role of gut dysfunction in the altered gut-liver and gut-brain response in patients with AUD and moderate AH.
as §1

[3] = system: AUD patients; assay: Pilot study of LGG in AUD patients: heavy drinking markers; conditions: AUD patients treated for 6-months, preliminary results

Q: Which “1 month change in MELD, LGG arm compared to the placebo arm” value ([1]; 1 month, FIG. 2A) does the source give for Lactobacillus rhamnosus GG [LGG] here?
A: significantly dropped

Q: And the “1 month change in ABIC score” value ([1]; 1 month, FIG. 2C, p=0.005)?
A: dropped significantly

Q: And the “drop in the AST:ALT ratio, LGG arm compared to the placebo arm” value ([1]; FIG. 2B)?
A: significant

Q: What about the INR ([1]; 1 month, n = 17) of the same substance?
A: 1.32 ± 0.3 Unit Score

Q: What about the ABIC ([1]; 1 month, n = 17) of the same substance?
A: 5.84 ± 1.2 Unit Score

Q: What about the MELD ([1]; 1 month, n = 17) of the same substance?
A: 13.29 ± 4.34 Unit score

Q: What about the Creatinine ([1]; 1 month, n = 18) of the same substance?
A: .81 ± 0.5 mg/dL

Q: What about the Albumin ([1]; 1 month, n = 18) of the same substance?
A: 3.5 ± 0.8 g/dL

Q: What about the “AST:ALT” value ([1]; 1 month, n = 18) of the same substance?
A: 1.99 ± 1.2

Q: And the “Total Bilirubin” value ([1]; 1 month, n = 18)?
A: 2.54 ± 1.4 mg/dL

Q: What about the ALT ([1]; 1 month, n = 18) of the same substance?
A: 43.6 ± 44.9 U/L

Q: What about the AST ([1]; 1 month, n = 18) of the same substance?
A: 71.72 ± 59.9 U/L

Q: What about the Creatinine ([1]; 3 month, n = 17) of the same substance?
A: 0.90 ± 0.4 mg/dL

Q: What about the INR ([1]; 3 month, n = 17) of the same substance?
A: 1.31 ± 0.45 Unit Score

Q: What about the Albumin ([1]; 3 month, n = 17) of the same substance?
A: 3.6 ± 0.9 g/dL

Q: And the “AST:ALT” value ([1]; 3 month, n = 17)?
A: 1.7 ± 0.82

Q: And the ABIC ([1]; 3 month, n = 17)?
A: 5.98 ± 1.5 Unit Score

Q: What about the “Total Bilirubin” value ([1]; 3 month, n = 17) of the same substance?
A: 3.82 ± 8.3 mg/dL

Q: What about the MELD ([1]; 3 month, n = 17) of the same substance?
A: 12.06 ± 7.73 Unit score

Q: And the ALT ([1]; 3 month, n = 17)?
A: 33.39 ± 36.27 U/L

Q: And the AST ([1]; 3 month, n = 17)?
A: 58.65 ± 51.9 U/L

Q: And the “Total Bilirubin” value ([1]; 6 month, n = 15)?
A: 2.8 ± 3.84 mg/dL

Q: And the MELD ([1]; 6 month, n = 15)?
A: 12.40 ± 8.4 Unit score

Q: What about the Creatinine ([1]; 6 month, n = 16) of the same substance?
A: 0.88 ± 0.35 mg/dL

Q: And the INR ([1]; 6 month, n = 16)?
A: 1.41 ± 0.69 Unit Score

Q: What about the Albumin ([1]; 6 month, n = 16) of the same substance?
A: 4.01 ± 0.94 g/dL

Q: What about the “AST:ALT” value ([1]; 6 month, n = 16) of the same substance?
A: 1.65 ± 0.97

Q: What about the ABIC ([1]; 6 month, n = 16) of the same substance?
A: 6.08 ± 1.46 Unit Score

Q: And the ALT ([1]; 6 month, n = 16)?
A: 38.75 ± 32.48 U/L

Q: What about the AST ([1]; 6 month, n = 16) of the same substance?
A: 48.75 ± 25.20 U/L

Q: What about the “biomarkers of liver injury progression and severity” value ([1]; LGG treatment, summary) of the same substance?
A: significant reduction

Q: What about the “drinking level reached (social or abstinence level)” value ([2]; 6-month assessment, compared to placebo) of the same substance?
A: < 4 drinks/week

Q: What about the “change in average drinks/week in LGG arm compared to the placebo arm” value ([2]; 6-month assessment, p=0.0128) of the same substance?
A: significant drop

Q: What about the “heavy drinking levels after treatment” value ([2]; 6 months of LGG treatment) of the same substance?
A: reduced heavy drinking levels to the social drinking or abstinence levels

Q: What about the “#Drinks (Weekly)” value ([2]; 1 month, n = 23) of the same substance?
A: 1.81 ± 3.77

Q: What about the “#Drinks (Weekly)” value ([2]; 3 month, n = 18) of the same substance?
A: 2.83 ± 7.71

Q: What about the “#Drinks (Weekly)” value ([2]; 6 month, n = 16) of the same substance?
A: 0.31 ± 1.01

Q: What about the “lowering of alcohol consumption (average drinking/week) over 6 months within group” value ([2]; over 6 months, p≤0.001 in the LGG group) of the same substance?
A: significant, with higher significance

Q: What about the “patients with reduction of alcohol drinks/week to the level of social drinking criteria” value ([2]; vs four of the 22 placebo, Fisher's exact test p=0.0012, Likelihood ratio=9.0) of the same substance?
A: sixteen of the 24

Q: And the heavy drinking markers [3]?
A: reduction of heavy drinking markers
